Values of other authors, collected in patent publication US20050261210A1, “Nonsense suppressor agents in treatment of cutaneous and gastrointestinal disorders” (priority 2004, published 2005).
Entries after “also recorded” stand apart in the source; their conditions may differ. Like-named read-outs stand apart in the source and are kept apart here.

Columns and labels:
[1] = system: termination suppression (readthrough); conditions: for levels of termination suppression: in vitro assay, compared with tobramycin
dystrophin [2] = conditions: cultured muscle cells from mdx mice
CFTR [3] = conditions: cultured respiratory epithelial cells with CFTR nonsense mutations
dystrophin [4] = conditions: mdx mice, systemic treatment
dystrophin [5] = conditions: Duchenne muscular dystrophy patients with nonsense mutations
CFTR [6] = conditions: cystic fibrosis patients with CFTR nonsense mutation, application to nasal mucosa
CFTR [7] = conditions: transgenic mouse model of nonsense-mutated CFTR

Row | Compound | level of read-through ([1]; compared with gentamicin) | levels of termination suppression [1] | dystrophin level (dystrophin [2]) | expression of functional CFTR protein (CFTR [3]) | dystrophin expression (dystrophin [4]) | muscle injury (dystrophin [4]; versus untreated mdx mice) | dystrophin expression (dystrophin [5]) | functional CFTR protein (CFTR [6]) | expression of functional CFTR protein (CFTR [7])
1 | NCC[C@H](O)C(=O)N[C@@H]1C[C@H](N)[C@@H](O[C@H]2O[C@H](CN)[C@@H](O)[C@H](O)[C@H]2O)[C@H](O)[C@H]1O[C@H]1O[C@H](CO)[C@@H](O)[C@H](N)[C@H]1O [amikacin] | higher level of read-through than gentamicin in some contexts | higher than those provided by tobramycin | – | – | – | – | – | – | –
2 | gentamicin | – | higher than those provided by tobramycin | detectable levels of dystrophin | restore expression of functional CFTR protein | expression of the protein throughout the animal | protection against the muscle injury | treatment-dependent expression of dystrophin in some patients; also recorded: lack of response in others | restoration of functional CFTR protein | restore expression of functional CFTR protein
